Species: Rattus norvegicus
Assay: Open TG-GATES - Regimen: Single
Type: toxicity, organism-based, Sprague-Dawley
Design: regimen Single, gender Male, age 6 weeks
Details: in vivo, ip, 0.3 mg/kg, route intraperitoneal injection, dose 300 ug/Kg, dose level High; for APTT / Bas / Eos / Fbg / Hb / Ht / Lym / MCH / MCHC / MCV / Mono / Neu / PT / Plat / RBC / Ret / WBC: tissue Blood; for KIDNEY_L / KIDNEY_R / KIDNEY_TOTAL: tissue Kidney; for LIVER: tissue Liver; for A/G / ALP / ALT / AST / BUN / CRE / Ca / Cl / DBIL / GLC / IP / K / LDH / Na / PL / RALB / TBIL / TC / TG / TP / gamma-GTP: tissue Plasma

Structure (SMILES): CC(=O)N[C@H]1[C@@H](O[C@@H]2O[C@H](CC(O)[C@H]3O[C@@H](n4ccc(=O)[nH]c4=O)[C@H](O)[C@@H]3O)[C@H](O)[C@H](O)[C@H]2NC(=O)/C=C/CC(C)C)O[C@H](CO)[C@@H](N)[C@@H]1O (some centres not stated) [TUNICAMYCIN]
- TERMINAL_BW (3 h): 222.1 g
- APTT (3 h): 21.6 s
- Bas (3 h): 0%
- Eos (3 h): 0.4%
- Fbg (3 h): 288.4 mg/dL
- Hb (3 h): 13.1 g/dL
- Ht (3 h): 40.3%
- Lym (3 h): 80.8%
- MCH (3 h): 20.8 pg
- MCHC (3 h): 32.5%
- MCV (3 h): 64 fL
- Mono (3 h): 3%
- Neu (3 h): 14.6%
- PT (3 h): 15.5 s
- Plat (3 h): 108.9 x10_4/uL
- RBC (3 h): 630.4 x10_4/ul
- Ret (3 h): 8%
- WBC (3 h): 89.8 x10_2/uL
- KIDNEY_L (3 h): 1 g
- KIDNEY_R (3 h): 1 g
- KIDNEY_TOTAL (3 h): 2 g
- LIVER (3 h): 10.1 g
- A/G (3 h): 1.2
- ALP (3 h): 1378 IU/L
- ALT (3 h): 38.4 IU/L
- AST (3 h): 70.6 IU/L
- BUN (3 h): 13.6 mg/dL
- CRE (3 h): 0.1 mg/dL
- Ca (3 h): 10.9 mg/dL
- Cl (3 h): 106.6 meq/L
- DBIL (3 h): 0 mg/dL
- GLC (3 h): 167.8 mg/dL
- IP (3 h): 8.4 mg/dL
- K (3 h): 4.4 meq/L
- LDH (3 h): 154 IU/L
- Na (3 h): 140.4 meq/L
- PL (3 h): 127.4 mg/dL
- RALB (3 h): 2.9 g/dL
- TBIL (3 h): 0.016 mg/dL
- TC (3 h): 68.6 mg/dL
- TG (3 h): 71 mg/dL
- TP (3 h): 5.3 g/dL
- gamma-GTP (3 h): 1.4 IU/L
- TERMINAL_BW (6 h): 219.8 g
- APTT (6 h): 21.5 s
- Bas (6 h): 0%
- Eos (6 h): 0.8%
- Fbg (6 h): 309.6 mg/dL
- Hb (6 h): 13.3 g/dL
- Ht (6 h): 41%
- Lym (6 h): 70.8%
- MCH (6 h): 20.8 pg
- MCHC (6 h): 32.5%
- MCV (6 h): 64 fL
- Mono (6 h): 3.2%
- Neu (6 h): 24.2%
- PT (6 h): 15.9 s
- Plat (6 h): 118.2 x10_4/uL
- RBC (6 h): 640.4 x10_4/ul
- Ret (6 h): 7.6%
- WBC (6 h): 84.7 x10_2/uL
- KIDNEY_L (6 h): 1 g
- KIDNEY_R (6 h): 1 g
- KIDNEY_TOTAL (6 h): 1.9 g
- LIVER (6 h): 9.1 g
- A/G (6 h): 1.2
- ALP (6 h): 1426.6 IU/L
- ALT (6 h): 41.4 IU/L
- AST (6 h): 73.6 IU/L
- BUN (6 h): 12.6 mg/dL
- CRE (6 h): 0.1 mg/dL
- Ca (6 h): 10.7 mg/dL
- Cl (6 h): 107 meq/L
- DBIL (6 h): 0.002 mg/dL
- GLC (6 h): 173.8 mg/dL
- IP (6 h): 9.1 mg/dL
- K (6 h): 4.5 meq/L
- LDH (6 h): 175.8 IU/L
- Na (6 h): 141 meq/L
- PL (6 h): 125 mg/dL
- RALB (6 h): 2.9 g/dL
- TBIL (6 h): 0.012 mg/dL
- TC (6 h): 71 mg/dL
- TG (6 h): 50.4 mg/dL
- TP (6 h): 5.4 g/dL
- gamma-GTP (6 h): 1.2 IU/L
- TERMINAL_BW (9 h): 212.4 g
- APTT (9 h): 20.8 s
- Bas (9 h): 0%
- Eos (9 h): 0.4%
- Fbg (9 h): 307 mg/dL
- Hb (9 h): 13.5 g/dL
- Ht (9 h): 41.4%
- Lym (9 h): 73.8%
- MCH (9 h): 20.9 pg
- MCHC (9 h): 32.7%
- MCV (9 h): 63.7 fL
- Mono (9 h): 2.8%
- Neu (9 h): 21.4%
- PT (9 h): 16.4 s
- Plat (9 h): 121.3 x10_4/uL
- RBC (9 h): 649.2 x10_4/ul
- Ret (9 h): 7.1%
- WBC (9 h): 84 x10_2/uL
- KIDNEY_L (9 h): 1 g
- KIDNEY_R (9 h): 1 g
- KIDNEY_TOTAL (9 h): 1.9 g
- LIVER (9 h): 8.8 g
- A/G (9 h): 1.2
- ALP (9 h): 1397.6 IU/L
- ALT (9 h): 43.4 IU/L
- AST (9 h): 86.6 IU/L
- BUN (9 h): 17.4 mg/dL
- CRE (9 h): 0.1 mg/dL
- Ca (9 h): 10.5 mg/dL
- Cl (9 h): 107.4 meq/L
- DBIL (9 h): 0 mg/dL
- GLC (9 h): 164.8 mg/dL
- IP (9 h): 9.4 mg/dL
- K (9 h): 4.4 meq/L
- LDH (9 h): 185.6 IU/L
- Na (9 h): 140.8 meq/L
- PL (9 h): 114.8 mg/dL
- RALB (9 h): 3 g/dL
- TBIL (9 h): 0.018 mg/dL
- TC (9 h): 68.2 mg/dL
- TG (9 h): 22.2 mg/dL
- TP (9 h): 5.4 g/dL
- gamma-GTP (9 h): 1 IU/L
- TERMINAL_BW (24 h): 228.7 g
- APTT (24 h): 23.4 s
- Bas (24 h): 0%
- Eos (24 h): 1.2%
- Fbg (24 h): 288 mg/dL
- Hb (24 h): 13.2 g/dL
- Ht (24 h): 41%
- Lym (24 h): 76.2%
- MCH (24 h): 20.1 pg
- MCHC (24 h): 32.2%
- MCV (24 h): 62.4 fL
- Mono (24 h): 3.6%
- Neu (24 h): 18.4%
- PT (24 h): 16.5 s
- Plat (24 h): 122.4 x10_4/uL
- RBC (24 h): 658.2 x10_4/ul
- Ret (24 h): 7.2%
- WBC (24 h): 97.7 x10_2/uL
- KIDNEY_L (24 h): 1 g
- KIDNEY_R (24 h): 1 g
- KIDNEY_TOTAL (24 h): 1.9 g
- LIVER (24 h): 10.8 g
- A/G (24 h): 1.3
- ALP (24 h): 1621.2 IU/L
- ALT (24 h): 55 IU/L
- AST (24 h): 86.6 IU/L
- BUN (24 h): 14.8 mg/dL
- CRE (24 h): 0.2 mg/dL
- Ca (24 h): 10.4 mg/dL
- Cl (24 h): 106.4 meq/L
- DBIL (24 h): 0 mg/dL
- GLC (24 h): 174.4 mg/dL
- IP (24 h): 7.5 mg/dL
- K (24 h): 4.5 meq/L
- LDH (24 h): 181.4 IU/L
- Na (24 h): 141.2 meq/L
- PL (24 h): 120.8 mg/dL
- RALB (24 h): 3 g/dL
- TBIL (24 h): 0.012 mg/dL
- TC (24 h): 58.4 mg/dL
- TG (24 h): 70.8 mg/dL
- TP (24 h): 5.3 g/dL
- gamma-GTP (24 h): 1.6 IU/L
